US9980925B2, “Xanthohumol in antiarrythmic applications” (University of South Carolina, priority 2016, dated 2018)
“Also recorded” adds a separate entry of the source.

Tests used:
Assay type in all cases: cell-based
[1] = system: rat ventricular cardiomyocyte; assay: ROS production from DCF fluorescence in ventricular myocytes incubated with H2DCFDA
Method: A Noran Odyssey XL rapid two-dimensional laser-scanning confocal microscope (Noran Instruments, Madison, Wis.; Zeiss Axiovert TV135) was used with a x63 water-immersion objective, λex=488 nm and λem>515 nm to measure kinetics and subcellular distribution of fluorescence signals according to known protocols. Ca^2+ was imaged after 20- to 30-minute incubation with fluo-4 AM (2 μM). ROS was measured by incubating cells with H2DCFDA (5 μM for 30 minutes), which is cleaved by esterases to form less permeant 2′,7′-dichlorodihydrofluorescein that is then oxidized by free radical compounds to fluorescent 2′,7′-dichlorofluorescein (DCF) as described previously. Fluorescence images of ROS were recorded at low fluorescence intensity and frame rate (about 1 Hz) and required considerable signal averaging (FIG. 1).
Measurements of ROS were also carried out using the oxygen-radical sensitive dye 2′,7′-dichlorofluorescein (DCF) (5 μM). The effect of the xanthohumol was compared with the antioxidant N-acetyl cysteine (10 mM).
ROS production was evaluated from the rate of increase in DCF fluorescence in ventricular myocytes incubated with H2DCFDA.

[2] = system: rat ventricular myocytes; assay: Global whole-cell Ca2+ transients in field-stimulated cells (Fluo-4 AM); details: for increase in Ca2+-transient peaks following a 30-second train of high-frequency stimulation: 0.5 to 2 Hz
Method: (§1) Whole-cell Ca^2+ transients occurring spontaneously or evoked electrically by field stimulation or voltage-clamp depolarizations or by rapid application of caffeine (2.5 mM for 0.5 or 1 second) were measured fluorometrically after incubating the cells in fluo-4 AM (2 μM) for 30 minutes. The dye was excited by 460 nm light from a LED-based illuminator (Prismatix, Modiin (lite, Israel), and Ca^2+-dependent fluorescent light (>500 nm) was detected with a photomultiplier tube that was placed behind a moveable, adjustable diaphragm, which served to limit the area of detection to the voltage-clamped cell. The cellular fluorescence signals (ΔF/F0) were normalized by dividing the changes in whole-cell fluorescence (ΔF) with the baseline fluorescence (F0).
Effects of xanthohumol on cardiac Ca^2+ signaling were evaluated in enzymatically dispersed ventricular myocytes that were subjected to field stimulation or voltage-clamp depolarizations in the whole-cell, perforated patch configuration to activate Ca^2+ current (ICa) and SR Ca^2+ release.
(§2) The cells were incubated with fluo-4 AM for 30 minutes to allow fluorometric imaging of Ca^2+ sparks and measurements of whole-cell Ca^2+ transients. Rapid perfusion of caffeine was used to release, and SR Ca^2+ stores and assesses their size according to known methodology. Xanthohumol was tested in the range from 5 nM to 1 μM and was used routinely either with acute application of 50 nM drug or by incubation of cells in 10 nM xanthohumol-containing solutions for 30 minutes. All cells were first perfused with Tyrode's solution (137 mM NaCl, 10 mM HEPES, 10 mM glucose, 5.4 mM KCl, 2 mM CaCl, 1 mM MgCl) and thereafter were subjected to the following in the absence or presence of xanthohumol:
(§3) Each experimental condition was typically sustained for 2-8 minutes to achieve equilibration. To avoid cell damage due to continuous light exposure, recordings were generally performed for intervals of only 5-10 seconds, but repeated every minute. Cells challenged with isoproterenol or low K^+ typically developed more abundant spontaneous Ca^2+ sparks and interdispersed irregular whole-cell Ca^2+ transients, especially in the absence of xanthohumol.

[3] = target: T1, L-type Ca^2+ current (ICa) (Rattus norvegicus, UniProt P22002); assay: Voltage-clamp recording of L-type Ca2+ current (perforated patch)
T1 construct: enzymatically dispersed ventricular myocytes that were subjected to field stimulation or voltage-clamp depolarizations; endogenous in cells; host or cells: freshly isolated ventricular cardiomyocytes of male Sprague-Dawley rats
T1 sequence (P22002 whole entry, other chains not shown): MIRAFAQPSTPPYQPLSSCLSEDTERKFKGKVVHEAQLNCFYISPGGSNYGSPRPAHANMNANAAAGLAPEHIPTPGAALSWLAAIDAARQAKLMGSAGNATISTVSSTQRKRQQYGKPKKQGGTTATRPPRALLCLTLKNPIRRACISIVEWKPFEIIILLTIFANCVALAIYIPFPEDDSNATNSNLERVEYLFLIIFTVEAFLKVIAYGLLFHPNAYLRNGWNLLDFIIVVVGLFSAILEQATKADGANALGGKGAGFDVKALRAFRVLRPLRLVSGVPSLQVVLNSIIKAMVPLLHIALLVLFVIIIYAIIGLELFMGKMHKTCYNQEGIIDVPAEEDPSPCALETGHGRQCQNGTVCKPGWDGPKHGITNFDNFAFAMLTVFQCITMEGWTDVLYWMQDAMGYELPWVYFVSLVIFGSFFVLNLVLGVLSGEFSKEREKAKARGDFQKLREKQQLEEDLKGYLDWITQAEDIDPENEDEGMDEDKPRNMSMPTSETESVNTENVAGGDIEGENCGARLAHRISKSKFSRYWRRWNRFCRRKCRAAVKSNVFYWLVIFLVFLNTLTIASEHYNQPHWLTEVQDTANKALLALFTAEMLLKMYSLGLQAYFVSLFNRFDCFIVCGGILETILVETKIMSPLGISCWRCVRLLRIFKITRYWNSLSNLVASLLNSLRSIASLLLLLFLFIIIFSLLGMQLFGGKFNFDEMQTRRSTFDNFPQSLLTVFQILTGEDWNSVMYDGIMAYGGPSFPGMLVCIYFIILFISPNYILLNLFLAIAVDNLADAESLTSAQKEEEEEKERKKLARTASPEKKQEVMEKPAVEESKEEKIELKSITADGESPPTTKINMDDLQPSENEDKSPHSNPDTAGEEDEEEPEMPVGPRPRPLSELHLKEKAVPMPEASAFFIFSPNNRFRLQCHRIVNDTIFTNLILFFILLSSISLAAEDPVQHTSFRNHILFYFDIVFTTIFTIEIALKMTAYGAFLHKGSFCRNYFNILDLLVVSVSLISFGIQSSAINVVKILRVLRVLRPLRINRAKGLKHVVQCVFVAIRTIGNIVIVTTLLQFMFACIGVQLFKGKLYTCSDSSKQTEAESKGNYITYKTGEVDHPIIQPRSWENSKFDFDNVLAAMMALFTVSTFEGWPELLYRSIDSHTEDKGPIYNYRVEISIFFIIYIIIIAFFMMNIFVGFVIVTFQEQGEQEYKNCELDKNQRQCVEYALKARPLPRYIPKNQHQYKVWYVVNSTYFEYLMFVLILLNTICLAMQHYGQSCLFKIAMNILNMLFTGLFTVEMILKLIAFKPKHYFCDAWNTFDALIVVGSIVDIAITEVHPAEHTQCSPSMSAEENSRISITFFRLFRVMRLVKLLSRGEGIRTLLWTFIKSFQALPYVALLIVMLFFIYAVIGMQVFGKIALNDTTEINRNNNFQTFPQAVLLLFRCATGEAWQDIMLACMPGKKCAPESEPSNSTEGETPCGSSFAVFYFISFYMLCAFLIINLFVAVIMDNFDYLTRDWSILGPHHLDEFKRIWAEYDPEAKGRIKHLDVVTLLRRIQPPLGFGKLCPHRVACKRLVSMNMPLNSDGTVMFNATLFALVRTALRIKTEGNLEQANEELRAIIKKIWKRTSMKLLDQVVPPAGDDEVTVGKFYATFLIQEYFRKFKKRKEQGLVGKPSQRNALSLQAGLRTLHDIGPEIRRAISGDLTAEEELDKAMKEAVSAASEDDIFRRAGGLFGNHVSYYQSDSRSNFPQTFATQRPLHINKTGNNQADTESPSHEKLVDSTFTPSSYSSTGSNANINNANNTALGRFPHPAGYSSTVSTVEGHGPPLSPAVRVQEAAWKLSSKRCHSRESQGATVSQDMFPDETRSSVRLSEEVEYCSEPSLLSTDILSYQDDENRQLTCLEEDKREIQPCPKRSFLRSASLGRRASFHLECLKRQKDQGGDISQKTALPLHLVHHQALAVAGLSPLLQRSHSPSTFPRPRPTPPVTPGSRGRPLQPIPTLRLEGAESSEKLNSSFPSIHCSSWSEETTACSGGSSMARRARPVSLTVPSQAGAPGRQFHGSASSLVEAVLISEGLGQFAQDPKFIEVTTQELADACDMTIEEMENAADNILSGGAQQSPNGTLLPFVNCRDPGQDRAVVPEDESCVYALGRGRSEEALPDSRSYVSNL
T1 sequence (P54290 25-944 partner limits assumed, other chains not shown): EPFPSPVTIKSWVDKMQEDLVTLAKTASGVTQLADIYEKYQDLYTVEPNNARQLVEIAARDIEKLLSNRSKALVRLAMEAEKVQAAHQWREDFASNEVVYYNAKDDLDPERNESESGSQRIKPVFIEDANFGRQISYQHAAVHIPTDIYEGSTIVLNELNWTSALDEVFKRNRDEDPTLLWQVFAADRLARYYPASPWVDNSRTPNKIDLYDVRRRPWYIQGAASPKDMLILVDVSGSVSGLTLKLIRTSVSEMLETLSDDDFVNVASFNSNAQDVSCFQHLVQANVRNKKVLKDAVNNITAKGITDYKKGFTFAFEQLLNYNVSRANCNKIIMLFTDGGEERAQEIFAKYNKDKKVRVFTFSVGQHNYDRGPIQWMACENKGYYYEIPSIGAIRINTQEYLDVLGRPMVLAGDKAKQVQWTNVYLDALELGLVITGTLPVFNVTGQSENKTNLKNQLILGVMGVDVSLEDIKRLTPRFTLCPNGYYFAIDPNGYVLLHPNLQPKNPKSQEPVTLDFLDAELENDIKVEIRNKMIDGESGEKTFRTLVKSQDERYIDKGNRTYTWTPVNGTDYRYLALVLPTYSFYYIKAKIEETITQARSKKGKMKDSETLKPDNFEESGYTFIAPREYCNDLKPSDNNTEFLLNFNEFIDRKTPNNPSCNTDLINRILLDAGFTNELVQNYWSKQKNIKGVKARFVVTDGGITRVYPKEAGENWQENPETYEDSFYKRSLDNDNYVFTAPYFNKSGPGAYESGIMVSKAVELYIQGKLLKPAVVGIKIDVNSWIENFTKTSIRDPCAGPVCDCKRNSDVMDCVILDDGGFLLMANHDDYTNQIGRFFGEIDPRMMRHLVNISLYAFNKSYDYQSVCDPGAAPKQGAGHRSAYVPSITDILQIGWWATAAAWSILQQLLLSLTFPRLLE
T1 sequence (P54290 945-1091 partner limits assumed, other chains not shown): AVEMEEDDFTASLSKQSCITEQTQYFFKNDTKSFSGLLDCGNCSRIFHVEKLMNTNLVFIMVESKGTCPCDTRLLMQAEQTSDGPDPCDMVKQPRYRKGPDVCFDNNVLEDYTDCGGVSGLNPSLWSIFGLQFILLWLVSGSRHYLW
Method: (§4) Cells were voltage-clamped in the whole-cell perforated patch configuration at a holding potential of −50 or −60 mV and depolarized to +10 mV to activate L-type Ca^2+ current (ICa) and Ca^2+-induced Ca^2+ release using a Dagan amplifier and pClamp software (Clampex 10.2). Borosilicate patch pipettes were prepared using a horizontal pipette puller (Model P-87; Sutter Instruments, Novato, Calif.). […] Rapid applications of 2.5 mM caffeine and pharmacological interventions were used to elucidate the action mechanism of xanthohumol. Most experiments were performed at 35° C. Voltage-clamp experiments testing dose response were performed at both 25° C. and 35° C.
The effects of xanthohumol on Ca^2+ signaling parameters was compared using concentrations ranging between 1 nM and 1 μM. The experiments were carried out under perforated patch conditions both at room temperature and 35° C. Ventricular myocytes incubated in fluo-4 AM were activated by 100-ms depolarizing pulses from −50 to 10 m versus at room temperature. Ca^2+ current was suppressed by xanthohumol when the concentrations of the drug exceeded 100 nM (FIG. 16, panel A). […] At room temperatures, xanthohumol also slowed the kinetics of relaxation of Ca^2+ transients, as it suppressed its peak, at concentrations exceeding 50 nM (FIG. 16, panels B and C; P<0.001). […] It was concluded that higher metabolic states of myocytes, induced by higher temperatures and adrenergic stimulation, reduce the inhibitory effects of xanthohumol on Ca^2+ transients.

[4] = system: rat ventricular myocytes; assay: SR Ca2+ content and refilling after caffeine-induced Ca2+ release
Method: as §1, §2
The aim of this set of experiments was to examine the effect of the xanthohumol on the SR Ca^2+ content and its recirculation. FIG. 14 compares the magnitude of Ca^2+ transients in electrically stimulated cells paced at 0.5 Hz to Ca^2+ transient that was produced when one stimulus was replaced by a rapid application of 2.5 mM caffeine for 1 second. […] It was concluded that xanthohumol suppresses slightly the Ca^2+ content of the SR, but this effect was fully reversed by isoproterenol.
To probe the effect of xanthohumol on recirculation of SR Ca^2+ and its refilling following depletion of its content by caffeine, the rate of recovery of electrically triggered Ca^2+ transients back to control levels was quantified as a measure of refilling of the SR store. […].

[5] = system: rat ventricular myocytes; assay: Ca2+ transients in voltage-clamped cells (Fluo-4 AM)
Method: as §4, §1
The effects of xanthohumol on Ca^2+ signaling parameters was compared using concentrations ranging between 1 nM and 1 μM. The experiments were carried out under perforated patch conditions both at room temperature and 35° C. Ventricular myocytes incubated in fluo-4 AM were activated by 100-ms depolarizing pulses from −50 to 10 m versus at room temperature. Ca^2+ current was suppressed by xanthohumol when the concentrations of the drug exceeded 100 nM (FIG. 16, panel A). […] At room temperatures, xanthohumol also slowed the kinetics of relaxation of Ca^2+ transients, as it suppressed its peak, at concentrations exceeding 50 nM (FIG. 16, panels B and C; P<0.001). […]

[6] = system: rat ventricular myocytes; assay: Ca2+ spark imaging (Fluo-4 epifluorescence)
Method: Ca^2+ sparks (Fluo-4, λex=488 nm) were also measured with the LEICA DMI6000 microscope in the epifluorescence mode but now operating at 60-100 frames/s (FIG. 3, FIG. 4 (panels A-C); FIG. 5, FIG. 6, and FIG. 7); the average baseline fluorescence intensity (F0) was calculated from several frames without indication of spontaneous Ca^2+ signals in the form of sparks or waves. Images were filtered by 2 pixel×2 pixel averaging. The amplitudes of the Ca^2+-dependent cellular fluorescence signals were quantified as ΔF/F0, where ΔF is the change in fluorescence measured within selected regions of interest. The time constant of decay of Ca^2+ transients (Tau) was estimated by approximation with a single exponential.
as §2, §3

[7] = 50-100 nM, 35° C., field-stimulated
[8] = xanthohumol 50-300 nM co-applied with isoproterenol
[9] = isoproterenol 100 nM, 0.75 Hz, 35° C.

CC(=O)N[C@@H](CS)C(=O)O [N-acetyl cysteine, reference compound]
low K+-induced increase of the DCF signal ([1]; N-acetyl cysteine 10 mM, low K+): suppressed | effect on DCF signal after washout ([1]; after N-acetyl cysteine 10 mM): washout rapidly reversed the DCF signal

COc1cc(O)c(CC=C(C)C)c(O)c1C(=O)/C=C/c1ccc(O)cc1 [xanthohumol]
time to suppression of aberrant cellular Ca2+ transients ([2]; 30 nM, electrically stimulated 1 Hz, 25° C.): < 10 s | peak ΔF/F0, F0, or decay time constant (Tau) of electrically triggered Ca2+ transients ([2]; 100 nM, 35° C.): without modifying | spontaneously triggered beats induced by rapid electrical stimulation ([2]; 100 nM, 35° C.): suppressed significantly | frequency of spontaneously triggered Ca2+ oscillations ([2]; 1.5 mM K+, xanthohumol 50 nM): markedly reduced | concentrations over which Tau was significantly reduced ([2]; 0.5 Hz, 35° C. (FIG. 12 C)): over 300 nM | toxic concentrations ([2]; 35° C., electrically stimulated cells): about 1 mM | increase in Ca2+-transient peaks following a 30-second train of high-frequency stimulation ([2]; 50-100 nM xanthohumol, n=4): 12.14%±2.662 | normalized ΔF or F0 ([2]; 50-100 nM, 35° C., 0.5 Hz, statistically insignificant): slight increase | aberrant secondary Ca2+ release events [2, 7]: blocks | amplitude of electrically stimulated cellular Ca2+ transients [2, 7]: without decreasing | time for effects of xanthohumol to start to develop ([2]; continuous recordings (FIG. 9)): less than 10 seconds | Tau of relaxation ([2]; range of 10-300 nM, 35° C.): without much change | isoproterenol-triggered spontaneous events [2, 8]: strong suppression | various parameters of Ca2+ transients (ΔF/F0, F0, Tau) [2, 8]: without having a significant effect | increase in Ca2+-transient peaks following a 30-second train of high-frequency stimulation ([2]; xanthohumol and isoproterenol (100 nM)): 5.002%±0.6667 | effect on ICa ([3]; 10 nM, room temperature): little or no effect | Ca2+ current ([3]; 100-300 nM, 35° C.): significantly increased | concentration above which Ca2+ current was suppressed ([3]; room temperature): exceeded 100 nM | modulatory effect on the uptake kinetics (Tau) following Ca2+ release by caffeine ([4]; in presence of xanthohumol (50 nM)): completely suppressed | fractional Ca2+ release (ΔFStim/ΔFCaff) ([4]; xanthohumol 50 nM, 0.5 Hz, 35° C.): not influenced; also recorded: not significantly reduced | rate of refilling of the SR ([4]; xanthohumol 50 nM, after caffeine depletion): significantly reduced | ΔF/F signal of caffeine-induced Ca2+ release (total Ca2+ content of the SR) ([4]; xanthohumol 50 nM, caffeine 2.5 mM 1 second, 0.5 Hz, 35° C.): significantly reduced | reduction of peak of the triggered Ca2+ transient ([4]; xanthohumol 50 nM, paced at 0.5 Hz): 22.66% | diastolic Ca2+ levels ([4]; xanthohumol 50 nM, statistically insignificant): slight increase | effect on DCF signal after washout ([1]; after xanthohumol 50 nM): persisted even after washout | low K+ solution-induced increase of the DCF signal ([1]; xanthohumol 50 nM, low K+ 5.4→1.5 mM): effectively suppressed | slope of ROS-dependent DCF fluorescence signal (baseline ROS production) ([1]; xanthohumol 50 nM, uncompensated and background-compensated signal): reduced the slope | Ca2+ transients ([5]; 10 nM, room temperature): significantly suppressed | concentrations above which significant effects on ΔF/F or rate of decay occurred ([5]; 35° C.): exceeding 300 nM | concentrations above which relaxation of Ca2+ transients was slowed and peak suppressed ([5]; room temperature, P<0.001): exceeding 50 nM | frequency of Ca2+ sparks evoked by withdrawal of extracellular K+ ([6]; 50 nM): markedly decreased | time to reduction of spark frequency after application ([6]; acute 10 nM): ≤ 2 min | spontaneous Ca2+ spark frequency ([6]; acute 10 nM, control cells with high baseline spark frequency, 5.4 mM K+): consistently reduced | spontaneously developed Ca2+ oscillations or sparks ([6]; incubated 30 minutes in 10 nM, 5.4 mM K+): scarce | frequency of sparks/Ca2+ oscillations on reduction of K+ versus non-incubated cells ([6]; incubated 30 minutes in 10 nM, K+-free solutions, p<0.005): significantly lower

CC(C)NCC(O)c1ccc(O)c(O)c1 (stereo not drawn) [isoproterenol, reference compound]
enhancement of rate of relaxation of Ca2+ transients [2, 9]: about 30% | increase in frequency of spontaneous events [2, 9]: 3- to 4 fold | increase in amplitude of the Ca2+ transients ([2]; isoproterenol 100 nM, electrical stimulation 0.75 Hz, 35° C., P=0.0464): 50% | fraction of the caffeine-releasable Ca2+ pool released by electrical stimulation ([4]; isoproterenol 100 nM, 0.5 Hz, 35° C.): enhanced | increase of peak of the triggered Ca2+ transient ([4]; isoproterenol 100 nM, paced at 0.5 Hz): 74.12%
